Data as given in PMC10828988, “Tuning the Softness of the Pendant Arms and the Polyazamacrocyclic Backbone to Chelate the ^203Pb/^212Pb Theranostic Pair” (Inorganic Chemistry, 2024).
Values joined by “and” are separate entries in the source; they are usually repeats but may differ in a detail not shown here. Equal values may be shown once. Read-outs that look alike come from different tables or passages of the source. Marks after values point to notes of the source that are not given here.

Tests used:
[1] = Concentration-dependent radiolabeling with [203Pb]Pb2+ (iTLC); settings: for effect of a change in reaction time on RCI: 5 min vs 1 h; for effect of a change in reaction time on RCI / radiochemical incorporation (RCI) of [^203Pb]Pb^2+ / RCI of [^203Pb]Pb^2+: pH = 7, room temperature; for radiochemical incorporation of [^203Pb]Pb^2+: room temperature, 5 min reaction time, chelator concentration as low as 10^–5 M; for RCI of [^203Pb]Pb^2+: after 5 min; for RCI of [^203Pb]Pb^2+ on heating: T = 80 °C
Protocol: Water replaced the ligands in the negative control. All of the radiolabeling for the cyclen-based derivatives was performed at room temperature and monitored at 5 min and 1 h time points whereas heating at T = 80 °C was also employed for TACD3S, TRI4S, and TE4S. All radiolabeling reactions were repeated at least in triplicate.
Radiochemical incorporation (RCI) was determined via instant thin-layer chromatography (iTLC) with silicic acid (SA)-impregnated paper TLC plates (iTLC-SA, Agilent Technologies, USA). Ethylenediamine tetraacetic acid (EDTA, 50 mM, pH = 5.5) was used as the eluent. […] The iTLC plates were analyzed on an Eckert & Ziegler AR-2000 TLC scanner, and all the data were processed with Eckert & Ziegler WinScan software.

[2] = Out-of-cell UV-Vis spectrophotometric titrations (stability constants, pPb); type: physicochemical; settings: for log β, Pb^2+ + L ⇋ [PbL]: UV–Vis spectrophotometric titrations, I = 0.15 M NaNO3, T = 25 °C; for pPb = −log[Pb^2+]free / pPb* (−log of free Pb^2+ plus hydrolysis products): calculated at CPb^2+ = 10^–6 M, Cligand = 10^–5 M, pH = 7.4
Protocol: The ionic strength (I) was fixed to 0.15 M using sodium nitrate (NaNO3) as background electrolytes. All of the experiments described below were repeated at least in triplicate.
UV–Vis spectrophotometric titrations were carried out by the out-of-cell method in the pH range of 0–12 at T = 25 °C. […] A Mettler Toledo pH meter with a glass electrode was used to measure the pH. […] In highly acidic solutions (pH ≪ 2), the pH was computed from the acid concentration (pH = −logCH^+). After the pH adjustment, the vials were sealed, heated to T = 60 °C to ensure complete Pb^2+ complexation, and cooled to room temperature. The absorption spectra were recorded using the same apparatus described for the kinetic measurements (vide supra). The equilibrium was reached when no variations of the electronica spectra or the pH were detected.
All equilibrium data were processed using the least-squares fitting program PITMAP as described in our previous works.[2],[4],[28] The overall equilibrium constants refer to the general equilibria pM^m+ + qH^+ + rL^l– ⇆ MpHqLr^pm+q–rl, where M^m+ represent the metal ion and L^l– represents the deprotonated ligand, and are designated as logβ (βpqr = [MpLqHr]/[M]^p[L]^q[H]^r). The refinements of log β included the previously determined ligand protonation constants and the Pb^2+ hydrolysis products whose equilibrium constants were fixed to the literature values.[27],[39] […] The errors quoted are the standard deviations of the overall stability constants calculated by the PITMAP program.

[3] = Formation kinetics of Pb2+ complexes (UV-Vis / 1H NMR); type: physicochemical; settings: for time to reach equilibrium of Pb^2+ complexation: pH = 5, equimolar ligand and metal concentrations (10^–4 M), room temperature; for Pb^2+ complex formation: below pH = 4, after 2 weeks at room temperature or prolonged heating, UV-Vis; for ability to complex Pb^2+: pH < 7, 1H NMR of metal-ligand mixtures
Protocol: The formation kinetics of the Pb^2+ complexes was evaluated at room temperature by UV–Vis or ^1H NMR spectroscopy. A typical experiment was performed by mixing equimolar amounts of metal and ligand solutions (final concentrations: 1.0 × 10^–4 M for UV–Vis, 1.0 × 10^–3 M for ^1H NMR) in buffered media at pH = 2 (HCl 10^–2 M), pH = 3.7 (formic/formiate buffer), pH = 5 (acetic/acetate buffer), and pH = 7.4 (2-[4-(2-hydroxyethyl)piperazin-1-yl]ethanesulfonic acid, i.e., HEPES, buffer). To avoid the formation of PbCO3 (Ks = 7.4 × 10^–14), water was boiled before each measurement.
The electronic spectra were collected in the 200–800 nm range at different time points using a Cary 60 UV–Visible spectrophotometer (Agilent) equipped with a 1 cm path length quartz cell. The complexation reactions were monitored by the increase in the absorption peaks diagnostic of the Pb^2+-ligand complex formation at the characteristic wavelength (Table S2) over time. ^1H NMR spectra were recorded on a 400 MHz Bruker Avance III HD spectrometer. All data were collected […] with Topspin 3.5 using standard Bruker processing parameters with Topspin 4.1.1 software. […] Water suppression was carried out with the excitation sculpting pulse scheme.[38]

[4] = Direct in-cell pH-potentiometric titrations; type: physicochemical; settings: pH-potentiometry, I = 0.15 M NaNO3, T = 25 °C
Protocol: Nitric acid (HNO3) solutions were prepared at ∼10^–1 M by dilution of the concentrated acid (Aristar - VWR Chemicals, 69%) and standardized against sodium carbonate (Aldrich, 99.95–100.5%). Carbonate-free sodium hydroxide (NaOH) solutions were prepared at ∼10^–1 M from commercial pellets (Fluka, 99% min) using freshly boiled ultrapure water and standardized using the previously standardized acid. […] Pb^2+ solutions were preprepared from analytical-grade nitrate salt (Pb(NO3)2, Sigma-Aldrich, 99%) and standardized using complexometric titrations with ethylenediaminetetraacetic acid (EDTA) with xylenole orange as an indicator. The ionic strength (I) was fixed to 0.15 M using sodium nitrate (NaNO3) as background electrolytes. All of the experiments described below were repeated at least in triplicate.
Direct (in-cell) pH-potentiometric titrations were carried out with an automated Metrohm 765 Dosimat titrating system using a Metrohm 713 pH meter. […]
All equilibrium data were processed using the least-squares fitting program PITMAP as described in our previous works.[2],[4],[28] […] The refinements of log β included the previously determined ligand protonation constants and the Pb^2+ hydrolysis products whose equilibrium constants were fixed to the literature values.[27],[39] […] The errors quoted are the standard deviations of the overall stability constants calculated by the PITMAP program.

[5] = design: method as in PMID 33527221; settings: cited from earlier work
[6] = design: method as in PMID 35571797, doi:10.1002/ejic.200700819; settings: state-of-the-art ligands, computed from literature constants; cited from earlier work
[7] = Acid-mediated dissociation kinetics in aqueous HCl (UV-Vis); type: physicochemical; settings: room temperature
Excerpt: The dissociation kinetics of the Pb^2+ complexes were studied under pseudo-first-order conditions at room temperature without control of the ionic strength by the addition of a concentrated aqueous solution of HCl (0.01 to 1 M) to aqueous solutions of the preformed complexes. The concentration of the Pb^2+ complexes after the H^+ addition was 1.0 × 10^–4 M. The dissociation reaction was followed by the decreasing intensity of the absorption band of the complexes at the characteristic wavelength (Table S2) using the same apparatus described for the formation kinetic measurements (vide supra).
The data were processed and fitted using the equation lnAt = lnA0 – ^dkobst, where At and A0 are the absorbances at time t and at the beginning of the reaction and ^dkobs is the observed dissociation rate constant. The corresponding half-life was obtained from the equation t1/2 = ln(2)/^dkobs.

| Compound | effect of a change in reaction time on RCI [1] | radiochemical incorporation (RCI) of [^203Pb]Pb^2+ ([1]; ligand 10^–4 M, 1 h) | radiochemical incorporation (RCI) of [^203Pb]Pb^2+ ([1]; ligand 10^–7 M, 1 h) [%] | log β, Pb^2+ + L ⇋ [PbL] [2] | pPb = −log[Pb^2+]free [2] | pPb* (−log of free Pb^2+ plus hydrolysis products) [2] | time to reach equilibrium of Pb^2+ complexation [3] | RCI of [^203Pb]Pb^2+ on heating ([1]; ligand 10^–4 M) | ability to complex Pb^2+ [3] | further results |
| --- | --- | --- | --- | --- | --- | --- | --- | --- | --- | --- |
| 1,4,7-tris[2-(methylsulfanyl)ethyl]-10-acetamido-1,4,7,10-tetraazacyclododecane [DO3SAm] | no effect | > 90% | 14 ± 4 | 16.8 ± 0.1 | 14.2 | 13.9 | 1 h |  |  | radiochemical incorporation (RCI) of [^203Pb]Pb^2+ ([1]; ligand 10^–5 M, 1 h): > 90%; radiochemical incorporation (RCI) of [^203Pb]Pb^2+ ([1]; ligand 10^–6 M, 1 h): 68 ± 4%; radiochemical incorporation of [^203Pb]Pb^2+ [1]: quantitative radiochemical incorporation |
| CSCCN1CCN(CC(=O)O)CCN(CCSC)CCN(CC(=O)O)CC1 [DO2A2S, 1,7-bis[2-(methylsulfanyl)ethyl]-1,4,7,10-tetraazacyclododecane-4,10-diacetic acid] | no effect | > 90% | 56 ± 4 | 18.3 ± 0.1 | 15.7 | 15.4 | practically instantaneous |  |  | radiochemical incorporation (RCI) of [^203Pb]Pb^2+ ([1]; ligand 10^–5 M, 1 h): > 90%; radiochemical incorporation (RCI) of [^203Pb]Pb^2+ ([1]; ligand 10^–6 M, 1 h): 68 ± 1%; radiochemical incorporation of [^203Pb]Pb^2+ [1]: quantitative radiochemical incorporation; log β, Pb^2+ + H^+ + L^2– ⇋ [PbHL]^+ [4]: 20.89 ± 0.07 ^c; log β, Pb^2+ + L^2– ⇋ [PbL] [4]: 18.2 ± 0.1 |
| CSCCN1CCNCCN(CCSC)CCN(CCSC)CC1 [DO3S, 1,4,7-tris[2-(methylsulfanyl)ethyl]-1,4,7,10-tetraazacyclododecane] |  | 88 ± 1% and 88% | 2 ± 1 | 14.2 ± 0.1 | 11.3 | 11.0 | 6 h |  |  | RCI of [^203Pb]Pb^2+ [1]: 65%; Pb^2+ complex formation [3]: No complex formation was detected |
| CSCCN1CCN(CCSC)CCN(CCSC)CCN(CCSC)CC1 [DO4S, 1,4,7,10-tetrakis[2-(methylsulfanyl)ethyl]-1,4,7,10-tetraazacyclododecane] |  | 81 ± 10% and 81% | 1.4 ± 0.4 | 12.3 ± 0.1 | 10.2 | 10.0 | 24 h |  |  | RCI of [^203Pb]Pb^2+ [1]: 35%; Pb^2+ complex formation [3]: No complex formation was detected; reaction time of Pb^2+ complexation ([3]; pH = 7.4, room temperature): 1 h |
| O=C(O)CN1CCN(CC(=O)O)CCN(CC(=O)O)CCN(CC(=O)O)CC1 [DOTA, 1,4,7,10-tetraazacyclododecane-1,4,7,10-tetraacetic acid] |  |  |  |  |  |  |  |  |  | RCI of [^203Pb]Pb^2+ ([5]; ligand 10^–4 M): 96 ± 1%; RCI of [^203Pb]Pb^2+ ([5]; ligand 10^–5 M): 76 ± 9%; RCI of [^203Pb]Pb^2+ ([5]; ligand 10^–6 M): 3 ± 1%; RCI of [^203Pb]Pb^2+ ([5]; ligand 10^–7 M): 1.5 ± 0.2%; pPb [6]: 20 |
| CSCCN1CCCN(CCSC)CCCN(CCSC)CCC1 [TACD3S, 1,5,9-tris[2-(methylsulfanyl)ethyl]-1,5,9-triazacyclododecane] |  | no radiometal incorporation was observed |  |  |  |  |  | only vaguely improved | not be able to complex Pb^2+ |  |
| NC(=O)CN1CCN(CC(N)=O)CCN(CC(N)=O)CCN(CC(N)=O)CC1 [TCMC, 1,4,7,10-tetraaza-1,4,7,10-tetra-(2-carbamoylmethyl)-cyclododecane, reference compound] | no effect |  | 41 ± 1 |  |  |  |  |  |  | radiochemical incorporation (RCI) of [^203Pb]Pb^2+ ([1]; ligand concentrations higher than 10^–6 M): quantitative; pPb [6]: > 18 |
| CSCCN1CCCN(CCSC)CCN(CCSC)CCCN(CCSC)CC1 [TE4S, 1,4,8,11-tetrakis[2-(methylsulfanyl)ethyl]-1,4,8,11-tetrazacyclotetradecane] |  | no radiometal incorporation was observed |  |  |  |  |  | only vaguely improved | not be able to complex Pb^2+ |  |
| CSCCN1CCCN(CCSC)CCN(CCSC)CCN(CCSC)CC1 [TRI4S, 1,4,7,10-tetrakis[2-(methylsulfanyl)ethyl]-1,4,7,10-tetrazacyclotridecane] |  | no radiometal incorporation was observed |  |  |  |  |  | only vaguely improved | not be able to complex Pb^2+ |  |
| CSCCN1CCNCCN(CCSC)CCN(CCSC)CC1.[Pb+2] [[Pb(DO3S)]^2+] |  |  |  |  |  |  |  |  |  | t1/2 acid-assisted dissociation ([7]; CHCl 0.01 M): 12 ± 2 min; ^dkobs acid-assisted dissociation ([7]; CHCl 0.1 M): 1.5 ± 0.3 min^–1; t1/2 acid-assisted dissociation ([7]; CHCl 0.1 M): 0.47 ± 0.09 min; t1/2 acid-assisted dissociation ([7]; CHCl 1.0 M): ^b (Instantaneous decomplexation during the reagent mixing time.) |
